Laboratory results as given in PubChem BioAssay (NCI).
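The compound was tested at five concentrations on cells cultured in 96-well plates, with a 48-hour exposure period. GI50 marks 50% less growth. TGI: concentration producing complete growth inhibition.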

Experiments:
Assay in all cases: NCI tumour cell line growth inhibition, 48 h
[1] = system: RXF 393 renal
[2] = system: OVCAR-3 ovarian
[3] = system: SW-620 colon
[4] = system: HT29 colon
[5] = system: SR leukemia
[6] = system: SF-268 CNS
[7] = system: DU-145 prostate
[8] = system: PC-3 prostate
[9] = system: MDA-MB-435
[10] = system: HS 578T breast

SMILES	TGI [1] [µM]	TGI [2] [µM]	TGI [3] [µM]	TGI [4] [µM]	TGI [5] [µM]	TGI [6] [µM]	GI50 [7] [µM]	TGI [7] [µM]	GI50 [8] [µM]	TGI [8] [µM]	GI50 [1] [µM]	GI50 [2] [µM]	GI50 [9] [µM]	TGI [9] [µM]	GI50 [3] [µM]	GI50 [4] [µM]	GI50 [10] [µM]	TGI [10] [µM]	GI50 [6] [µM]	GI50 [5] [µM]
CNC(=O)OCc1nc(S(C)=O)n(C)c1COC(=O)NC (centres undefined)	> 100	> 100	> 46.4	> 100	> 100	> 100														
CC1CC(=O)C(C(O)CC2CC(=O)N(c3ccccc3)C(=O)C2)C(C)C1 (centres undefined)	> 100	> 100	> 100	> 100	> 100	> 100														
COCCN1C2=CCCCC2=Nc2c(N)nc(N)nc21	> 100	77.7		> 100	> 100	> 100														
COc1cc2c(cc1OC)-c1c(cc(OC)c(OC)c1OC)C2=O	> 100	> 100	> 100	> 100	> 100	> 100														
CN/N=C(\C)CC(=O)Nc1cccc(Cl)c1C	> 100	> 100		> 100	53.5	> 100														
Nc1ccc(-c2ccc(-c3nc4ccccc4[nH]3)cc2)cc1	82.9	40.1	> 100	21.6		> 100	10.6	> 100	14.1	56.8	23.5	1.2	< 0.0192	> 100	< 0.0506	0.606	31.1	> 100	2.76	
C[C@]12CC[C@H]3[C@@H](C[C@@H]4SC(Nc5cccc(F)c5)=N[C@@]45CC(=O)CC[C@]35C)[C@@H]1CCC2=O	3.25	3.3	4.99	3.51		11.1	1.93	4.87	1.88	3.87	1.45	1.72	2.74	13.1	2.33	1.49	3.14	> 100	3.09	
Cc1ccccc1NC(=O)C(=O)Cc1nc2ccccc2s1	> 100	> 100	> 100	> 100	> 100	> 100														
O=C(O)C1Cc2nc[nH]c2CN1 (centres undefined)		> 100	> 100	> 100	> 100	> 100														
CC(C)OCN1COCN=C1NC#N	> 100	> 100	34.8	> 100	> 100	> 100														
COc1ccc(C(=O)C(C(=O)C(=O)Nc2nc3ccc(OC)cc3s2)c2ccc(OC)cc2)cc1 (centres undefined)		> 100	> 100	> 100		> 100														
COC1OC(C)C(OC(=O)C(C)(C)C)C(C)(O)C1O (centres undefined)	> 100	> 100	> 100	> 100	> 100	> 100														
Oc1cccc(C2SCc3nc4ccccc4n32)c1 (centres undefined)	> 100	> 100	> 100	> 100	> 100	> 100														
COC(=O)C(C(=O)C(=O)Nc1ccccc1OC)c1csc(-n2nc(-c3ccccc3)cc2-c2ccccc2)n1 (centres undefined)	> 100	> 100	> 100	> 100	> 100	> 100														
COc1ccc(-c2c(N)[n+]([O-])c3cc(C)c(C)cc3[n+]2[O-])cc1OC		> 100	> 100	> 100		> 100														
CCCCCN(CCCCC)C(=O)[C@@H](CCC(=O)OCc1ccccc1)NC(=O)c1cc2ccccc2[nH]1	> 100	> 100	> 100	> 100		> 100														
Fc1cccc(F)c1C1SCc2nc3ccccc3n21 (centres undefined)	> 100	> 100	> 100	> 100		> 100														
COCCOC(C)C(/C=N/NC(N)=S)=N/NC(N)=S (centres undefined)	> 100		> 100			> 100	> 100	> 100	0.0574	> 100	> 100	0.0252	> 100	> 100	> 100		> 100	> 100	> 100	
N#Cc1c(NC(=O)CCC(=O)O)ccc2ccccc12	> 100	> 100	> 100	> 100		> 100		> 100		> 100				> 100				> 100		
O=C1C=C(Br)C(=O)C(Br)=C1	> 100	> 100	> 100	> 100	> 80.6	> 100														

SMILES	TGI [1] [µM]	TGI [2] [µM]	TGI [3] [µM]	TGI [4] [µM]	TGI [5] [µM]	TGI [6] [µM]	GI50 [7] [µM]	TGI [7] [µM]	GI50 [8] [µM]	TGI [8] [µM]	GI50 [1] [µM]	GI50 [2] [µM]	GI50 [9] [µM]	TGI [9] [µM]	GI50 [3] [µM]	GI50 [4] [µM]	GI50 [10] [µM]	TGI [10] [µM]	GI50 [6] [µM]	GI50 [5] [µM]
COc1cc(C2C(C(=O)O)=C(C)Oc3cc4c(cc32)OCO4)cc(OC)c1OC (centres undefined)	> 100	48.1	> 100	> 100																
CC(=O)O[C@H]1CCC2[C@@H]3CCC4C(=O)c5oncc5C[C@]4(C)C3CC[C@@]21C (some centres undefined)	> 100	> 100	> 100	> 100		> 100														
CC(=O)Nc1ccc(/C=c2\sc3nnc(/C=C/c4ccccc4)n3c2=O)cc1	> 50	> 50	> 50			> 50														
CC1CC2C3CC(F)C4=CC(=O)C=CC4(C)C3(F)C(O)CC2(C)C1(O)C(=O)CO (centres undefined)	> 100	> 100	> 100	> 100	> 100	> 100														
CC(NC1CCC[C@H]1O)c1ccccc1 (mixture of isomers)	> 100	> 100	> 100	> 100		> 100														
COC(=O)C1CCc2c(OC)ccc(OC)c2C1=O (centres undefined)		> 100	> 100	> 100																
NC(C(=O)O)C(N)C(=O)O (centres undefined)	> 100	> 100	> 100	> 100	> 100	> 100		> 100		> 100								> 100		
COC(=O)/C(=C/N1CCN(C(=O)c2ccco2)C1=S)C(C)=O	9.49	11.6	12.5	46		25.6			18.1	> 100	4.41	2.67	4.51	36.6	3.9	15.8			5.84	
CC(=O)N1c2ccccc2C23CCN4CC5=CCOC(O)C(C5CC42)C13 (centres undefined)		> 100	> 100	> 100		> 100		> 100		> 100				> 100				> 100		
COc1ccc(OC)c(CCc2cc(OC)c(OC)cc2C)c1		> 100	> 100	> 100		> 100														
C=C(CO)CC(O)c1ccccc1 (centres undefined)	> 100	> 100	> 100	> 100		> 100														
O=C(C#Cc1c[nH]c(=O)[nH]c1=O)c1ccccc1	6.05	5.99	18.9	53.7		26.8														
CSc1s[s+]c(SC)c1[O-]	41.4	67.2	31.7	74.1	37	55.8														
O=C(NCCNCCO)c1ccc2oc3cc4ccccc4c(=O)n3c2c1	21.1		14.7	> 50	> 50	18.5			13.2	> 50	9.96		10.3	24.2	5.93	16.1			7.42	4.64
COc1ccc2cc(C(=O)/C=C/c3ccc(OC)c(OC)c3)ccc2c1		> 100	27.1	76.4	6.16	55.1	15.5	80.1	20.2	> 100		14.8	5.59	43.4	4.21	11.9			19.2	2.04
Cc1ccc(NC2=C(Cl)C(=O)c3nc(C)ccc3C2=O)cc1	2.96	1.39	3.7	8.46		3.78	1.47	2.85	1.19	2.78	1.57	0.395	1.48	2.88	1.74	2.79	1.88	4.8	1.74	
Cc1ccc(C(=O)/C=C/c2ccccc2Cl)cc1		31	27	29.7		48														
O=C(Nc1cc(C(F)(F)F)ccc1Cl)C(=O)C(C(=O)c1ccc2ccccc2c1)C1OC(=O)c2ccccc21 (centres undefined)	8.11	> 50.7	37.8	31.7	14.9	52.8														
Cc1cccc(NC(=O)CC2C(=O)Nc3ccccc3S2(=O)=O)c1C (centres undefined)	34.3	61.2	84.2	> 100	48	> 100														
CC1=CCC2(C#N)CCC1C2=O (centres undefined)		> 100	> 100	> 100	> 100	> 100														
